Test results as given in patent US20090069370A1, “AZACYCLYLISOQUINOLINONE AND ISOINDOLINONE DERIVATIVES AS HISTAMINE-3 ANTAGONISTS” (Wyeth, priority 2007, published 2009).
Counter-ions that a name gives are not always drawn.

target: T1, Human Histamine H3 Receptor (Homo sapiens, UniProt Q9Y5N1); assay: Methyl histamine binding in human histamine H3 receptor cell line; details: membranes of stably transfected HEK293T cells; radioligand 1 nM; Ki from IC50 by Cheng-Prusoff
T1 construct: expressed in transfected cells; host or cells: HEK293T cells, stably transfected; membrane preparation
Protocol: Evaluation of Methyl Histamine Binding in Human Histamine H3 Receptor Cell Line
The affinity of test compounds for the histamine 3 (H3) receptor is evaluated in the following manner. Stably transfected HEK293T cells are grown in DMEM containing 10% heat inactivated FBS and G-418 (500 ug/ml). Cells are scraped from the plate, transferred to centrifuge tubes, washed one time in PBS by centrifugation in a Sorvall RT7 Plus centrifuge (2000 rpm 10 minutes, 4° C.). The resulting pellets are stored at −80° C. until ready for use. Cells are re-suspended in buffer (50 mM Tris pH=7.5) and placed in a Dounce homogenizer, douncing ten times to homogenize cells. The homogenate is spun down by centrifugation (Sorvall RT7 Plus, 1800 rpm 10 minutes, 4° C.). The supernatant is placed in a Corex tube and spun down by centrifugation (Sorvall RC 5c Plus, 17,000 rpm 20 minutes, 4° C.). The pellet is resuspended in buffer (50 mM Tris, pH 7.5). Protein concentration (ug/ul) is determined using the Micro-BCA Protein Determination. The binding assay is set up in a 96 well microtiter plate in a total volume of 250 uL. Non-specific binding is determined in the presence of 10 uM clobenpropit. The final radioligand concentration is 1 nM. The test compound is serially diluted using the Beckman Biomek2000 to a final approximate range of 100 uM to 100 pM. Membranes are suspended in buffer, homogenized in 2 bursts of ten seconds using a Vitris mechanical homogenizer set at power setting 5. Ten μg of membranes are added to each well. Following a one hour incubation at 30° C., the reaction is terminated by the addition of ice cold buffer and rapid filtration with a Packard Filtermate Harvester through a GF/B filter pre-soaked with 1% PEI for one hour. The plate is dried for one hour at 37° C. and 60 μL Microscint Scintillant is added to each well. The CPM per well is measured on a Packard Top Count NXT. Ki values are determined in nM. The Ki is calculated from the IC50 (i.e. the concentration of competing ligand which displaces 50% of the specific binding of the radioligand). CPM values are expressed as % specific binding and plotted vs compound concentration. A curve is fitted using a four-parameter logistic fit and the IC50 value is determined. The Ki is calculated from this using the Cheng-Prusoff equation: […]=IC50/1+(L/Kd) where L=concentration of free radioligand used in the assay, and Kd is the dissociation constant of the radioligand for the receptor. L is determined for each experiment by counting an aliquot of the diluted radioligand (corresponding to that added to each well) and the Kd has previously been determined under identical conditions for this cell line/radioligand.

T1 sequence (Q9Y5N1 whole entry): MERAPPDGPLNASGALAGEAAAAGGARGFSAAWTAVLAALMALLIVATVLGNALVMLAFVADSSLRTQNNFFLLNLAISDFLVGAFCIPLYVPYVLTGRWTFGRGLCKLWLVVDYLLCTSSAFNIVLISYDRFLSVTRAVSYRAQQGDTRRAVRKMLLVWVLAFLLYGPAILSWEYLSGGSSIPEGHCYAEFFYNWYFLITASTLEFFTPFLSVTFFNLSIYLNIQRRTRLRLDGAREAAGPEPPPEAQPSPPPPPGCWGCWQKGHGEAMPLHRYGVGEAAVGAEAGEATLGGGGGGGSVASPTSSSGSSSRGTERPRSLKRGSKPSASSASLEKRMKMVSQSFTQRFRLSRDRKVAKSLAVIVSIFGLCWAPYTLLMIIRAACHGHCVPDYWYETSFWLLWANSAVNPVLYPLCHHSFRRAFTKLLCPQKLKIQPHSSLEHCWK

| SMILES | Ki |
| --- | --- |
| CCNC(=O)c1ccc(-c2ccc3c(c2)CCN([C@@H]2CCN(C4CCC4)C2)C3=O)cc1 [Example 45, 4-{2-[(3R)-1-cyclobutylpyrrolidin-3-yl]-1-oxo-1,2,3,4-tetrahydroisoquinolin-6-yl}-N-ethylbenzamide] | ≤ 0.01 µM |
| CNC(=O)c1ccc(COc2ccc3c(c2)CCN(C2CCN(C4CCC4)CC2)C3=O)cc1 [Example 16, 4-({[2-(1-Cyclobutylpiperidin-4-yl)-1-oxo-1,2,3,4-tetrahydroisoquinolin-6-yl]oxy}methyl)-N-methylbenzamide] | ≤ 0.01 µM |
| CCNC(=O)c1ccc(Oc2ccc3c(c2)CCN([C@@H]2CCN(C4CCC4)C2)C3=O)cc1 [Example 34, 4-({2-[(3R)-1-cyclobutylpyrrolidin-3-yl]-1-oxo-1,2,3,4-tetrahydroisoquinolin-6-yl}oxy)-N-ethylbenzamide] | ≤ 0.01 µM |
| CC(C)NC(=O)c1ccc(Oc2ccc3c(c2)CCN(C2CCN(C4CCC4)CC2)C3=O)cc1 [Example 6, 4-{[2-(1-Cyclobutylpiperidin-4-yl)-1-oxo-1,2,3,4-tetrahydroisoquinolin-6-yl]oxy}-N-isopropylbenzamide] | 0.0101 to 0.025 µM |
| O=C(c1ccc(Oc2ccc3c(c2)CCN(C2CCN(C4CCC4)CC2)C3=O)cc1)N1CCCC1 [Example 12, 2-(1-Cyclobutylpiperidin-4-yl)-6-[4-(pyrrolidin-1-ylcarbonyl)phenoxy]-3,4-dihydroisoquinolin-1(2H)-one] | ≤ 0.01 µM |
| O=C(c1ccc(Oc2ccc3c(c2)CCN([C@@H]2CCN(C4CCCC4)C2)C3=O)cc1)N1CCCC1 [Example 39, 2-[(3R)-1-cyclopentylpyrrolidin-3-yl]-6-[4-(pyrrolidin-1-ylcarbonyl)phenoxy]-3,4-dihydroisoquinolin-1(2H)-one] | ≤ 0.01 µM |
| CCNC(=O)c1ccc(-c2ccc3c(c2)CCN([C@@H]2CCN(C4CCCC4)C2)C3=O)cc1 [Example 42, 4-{2-[(3R)-1-cyclopentylpyrrolidin-3-yl]-1-oxo-1,2,3,4-tetrahydroisoquinolin-6-yl}-N-ethylbenzamide] | ≤ 0.01 µM |
| CNC(=O)c1ccc(Oc2ccc3c(c2)CCN([C@@H]2CCN(C4CCCC4)C2)C3=O)cc1 [Example 37, 4-({2-[(3R)-1-cyclopentylpyrrolidin-3-yl]-1-oxo-1,2,3,4-tetrahydroisoquinolin-6-yl}oxy)-N-methylbenzamide] | ≤ 0.01 µM |
| CN(C)C(=O)c1ccc(COc2ccc3c(c2)CCN(C2CCN(C4CCC4)CC2)C3=O)cc1 [Example 18, 4-({[2-(1-Cyclobutylpiperidin-4-yl)-1-oxo-1,2,3,4-tetrahydroisoquinolin-6-yl]oxy}methyl)-N,N-dimethylbenzamide] | ≤ 0.01 µM |
| CCCN1CCC(N2Cc3cc(-c4ccc(C#N)cc4)ccc3C2=O)CC1 [Example 25, 4-[1-Oxo-2-(1-propylpiperidin-4-yl)-2,3-dihydro-1H-isoindol-5-yl]benzonitrile] | > 0.1 µM |
| N#Cc1ccc(-c2ccc3c(c2)CN(C2CCN(C4CCCCC4)CC2)C3=O)cc1 [Example 30, 4-[2-(1-Cyclohexylpiperidin-4-yl)-1-oxo-2,3-dihydro-1H-isoindol-5-yl]benzonitrile] | 0.0251 to 0.05 µM |
| CNC(=O)c1ccc(Oc2ccc3c(c2)CCN([C@@H]2CCN(C4CCC4)C2)C3=O)cc1 [Example 33, 4-({2-[(3R)-1-cyclobutylpyrrolidin-3-yl]-1-oxo-1,2,3,4-tetrahydroisoquinolin-6-yl}oxy)-N-methylbenzamide] | ≤ 0.01 µM |
| O=C(c1ccc(Oc2ccc3c(c2)CCN([C@@H]2CCN(C4CCC4)C2)C3=O)cc1)N1CCCC1 [Example 35, 2-[(3R)-1-cyclobutylpyrrolidin-3-yl]-6-[4-(pyrrolidin-1-ylcarbonyl)phenoxy]-3,4-dihydroisoquinolin-1(2H)-one] | 0.0101 to 0.025 µM |
| O=C(c1ccc(-c2ccc3c(c2)CCN([C@@H]2CCN(CC4CCCC4)C2)C3=O)cc1)N1CCCC1 [Example 59, 2-[(3R)-1-(cyclopentylmethyl)pyrrolidin-3-yl]-6-[4-(pyrrolidin-1-ylcarbonyl)phenyl]-3,4-dihydroisoquinolin-1(2H)-one] | 0.0101 to 0.025 µM |
| O=C(c1ccc(-c2ccc3c(c2)CCN([C@@H]2CCN(C4CCC4)C2)C3=O)cc1F)N1CCCC1 [Example 48, 2-[(3R)-1-cyclobutylpyrrolidin-3-yl]-6-[3-fluoro-4-(pyrrolidin-1-ylcarbonyl)phenyl]-3,4-dihydroisoquinolin-1(2H)-one] | ≤ 0.01 µM |
| O=C(NC1CCC1)c1ccc(COc2ccc3c(c2)CCN(C2CCN(C4CCC4)CC2)C3=O)cc1 [Example 19, N-Cyclobutyl-4-({[2-(1-cyclobutylpiperidin-4-yl)-1-oxo-1,2,3,4-tetrahydroisoquinolin-6-yl]oxy}methyl)benzamide] | ≤ 0.01 µM |
| CCN(CC)C(=O)c1ccc(Oc2ccc3c(c2)CCN(C2CCN(C4CCC4)CC2)C3=O)cc1 [Example 11, 4-{[2-(1-Cyclobutylpiperidin-4-yl)-1-oxo-1,2,3,4-tetrahydroisoquinolin-6-yl]oxy}-N,N-diethylbenzamide] | 0.0251 to 0.05 µM |

The next lines start with the values.

| Ki | SMILES |
| --- | --- |
| ≤ 0.01 µM | O=C(c1ccc(-c2ccc3c(c2)CCN(C2CCN(C4CCC4)CC2)C3=O)cc1)N1CCCC1 [Example 65, 2-(1-cyclobutylpiperidin-4-yl)-6-[4-(pyrrolidin-1-ylcarbonyl)phenyl]-3,4-dihydroisoquinolin-1(2H)-one] |
| ≤ 0.01 µM | O=C(c1ccc(-c2ccc3c(c2)CCN(C2CCN(C4CCCC4)CC2)C3=O)cc1)N1CCCC1 [Example 66, 2-(1-cyclopentylpiperidin-4-yl)-6-[4-(pyrrolidin-1-ylcarbonyl)phenyl]-3,4-dihydroisoquinolin-1(2H)-one] |
| ≤ 0.01 µM | O=C(c1ccc(-c2ccc3c(c2)CCN([C@@H]2CCN(Cc4ccoc4)C2)C3=O)cc1)N1CCCC1 [Example 60, 2-[(3R)-1-(furan-3-ylmethyl)pyrrolidin-3-yl]-6-[4-(pyrrolidin-1-ylcarbonyl)phenyl]-3,4-dihydroisoquinolin-1(2H)-one] |
| ≤ 0.01 µM | C[C@H]1CCCN1C(=O)c1ccc(-c2ccc3c(c2)CCN([C@@H]2CCN(C4CCC4)C2)C3=O)c(F)c1 [Example 73, 2-[(3R)-1-cyclobutylpyrrolidin-3-yl]-6-(2-fluoro-4-{[(2S)-2-methylpyrrolidin-1-yl]carbonyl}phenyl)-3,4-dihydroisoquinolin-1(2H)-one] |
| ≤ 0.01 µM | CNC(=O)c1ccc(-c2ccc3c(c2)CCN([C@@H]2CCN(C(C)C)C2)C3=O)c(F)c1 [Example 85, 3-fluoro-4-{2-[(3R)-1-isopropylpyrrolidin-3-yl]-1-oxo-1,2,3,4-tetrahydroisoquinolin-6-yl}-N-methylbenzamide] |
| ≤ 0.01 µM | C[C@@H]1CCCN1C(=O)c1ccc(-c2ccc3c(c2)CCN([C@@H]2CCN(C4CCC4)C2)C3=O)c(F)c1 [Example 76, 2-[(3R)-1-cyclobutylpyrrolidin-3-yl]-6-(2-fluoro-4-{[(2R)-2-methylpyrrolidin-1-yl]carbonyl}phenyl)-3,4-dihydroisoquinolin-1(2H)-one] |
| ≤ 0.01 µM | CC(C)N1CC[C@@H](N2CCc3cc(-c4ccc(C(=O)N5CCCC5)cc4F)ccc3C2=O)C1 [Example 84, 6-[2-fluoro-4-(pyrrolidin-1-ylcarbonyl)phenyl]-2-[(3R)-1-isopropylpyrrolidin-3-yl]-3,4-dihydroisoquinolin-1(2H)-one] |
| 0.0101 to 0.025 µM | CNC(=O)c1ccc(-c2ccc3c(c2)CN([C@@H]2CCN(C4CCC4)C2)C3=O)cc1 [Example 91, (R)-4-(2-(1-cyclobutylpyrrolidin-3-yl)-1-oxoisoindolin-5-yl)-N-methylbenzamide hydrochloride] |
| 0.0101 to 0.025 µM | O=C(c1ccc(-c2ccc3c(c2)CCN([C@@H]2CCCN(C4CCCC4)C2)C3=O)cc1)N1CCCC1 [Example 71, 2-[(3R)-1-cyclopentylpiperidin-3-yl]-6-[4-(pyrrolidin-1-ylcarbonyl)phenyl]-3,4-dihydroisoquinolin-1(2H)-one] |
| ≤ 0.01 µM | O=C(c1ccc(-c2ccc3c(c2)CN([C@@H]2CCN(C4CCC4)C2)C3=O)cc1)N1CCCC1 [Example 92, (R)-2-(1-cyclobutylpyrrolidin-3-yl)-5-(4-(pyrrolidine-1-carbonyl)-phenyl)isoindolin-1-one hydrochloride] |
| ≤ 0.01 µM | CCNC(=O)c1ccc(-c2ccc3c(c2)CCN([C@@H]2CCN(C(C)C)C2)C3=O)c(F)c1 [Example 86, N-ethyl-3-fluoro-4-{2-[(3R)-1-isopropylpyrrolidin-3-yl]-1-oxo-1,2,3,4-tetrahydroisoquinolin-6-yl}benzamide] |
